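In this assay, cells in 96-well plates receive the compound at five concentrations for 48 hours. Endpoints are linearly interpolated between the surrounding concentrations. At the GI50, growth is halved. TGI marks complete inhibition of growth.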
Tests used:
Assay in all cases: DTP human tumour cell line panel, 48 h
[1] = system: 786-0 renal
[2] = system: CAKI-1 renal
[3] = system: HOP-62 NSCLC
[4] = system: HS 578T breast
[5] = system: HT29 colon
[6] = system: NCI-H460 lung
[7] = system: OVCAR-4 ovarian
[8] = system: OVCAR-5 ovarian
[9] = system: RPMI-8226 leukemia
[10] = system: UO-31 renal

SMILES	TGI [1]	TGI [2]	TGI [3]	TGI [4]	TGI [5]	TGI [6]	TGI [7]	TGI [8]	TGI [9]	TGI [10]	GI50 [2]	GI50 [3]	GI50 [4]	GI50 [5]	GI50 [6]	GI50 [8]	GI50 [9]	GI50 [10]	GI50 [7]
C=c1c2ccccc2oc2nc3[nH]c(N)c(C#N)c(N)c3c(=N)c12	> 100 µM	> 100 µM	> 100 µM	86.2 µM	80.8 µM	> 100 µM	> 100 µM	> 100 µM	> 100 µM	> 100 µM	–	–	–	–	–	–	–	–	–
O=C(/C=C/c1cc2ccccc2[nH]c1=O)c1ccc(O)cc1	–	> 100 µM	8.18 µM	> 100 µM	12.1 µM	6.87 µM	–	12.8 µM	24.8 µM	26.7 µM	4.71 µM	2.62 µM	6.14 µM	3.61 µM	2.39 µM	3.2 µM	3.2 µM	4.38 µM	–
Cc1ccnc2[nH]c(-c3ccc(Cl)cc3)cc(=O)c12	> 100 µM	> 100 µM	> 93.5 µM	> 100 µM	> 100 µM	> 100 µM	> 100 µM	> 100 µM	> 58.5 µM	> 100 µM	–	–	–	–	–	–	–	–	–
O=C(Cn1cc(I)c(C(=O)NCC(O)CO)n1)NCC(O)CO (configuration not stated)	> 100 µM	–	> 100 µM	–	> 100 µM	> 100 µM	> 100 µM	–	> 100 µM	> 100 µM	–	–	–	–	–	–	–	–	–
CSCCC(NOC(=O)Cc1ccccc1)P(=O)(O)c1ccccc1 (configuration not stated)	–	> 100 µM	> 100 µM	> 100 µM	> 100 µM	> 100 µM	> 100 µM	> 100 µM	> 100 µM	> 100 µM	–	–	–	–	–	–	–	–	–
Cc1cccc(N=Nc2ccc(O)c(CN(C)C)c2)c1	92.5 µM	> 100 µM	28.9 µM	44.9 µM	53.8 µM	34.8 µM	> 100 µM	98.4 µM	> 100 µM	51.5 µM	–	–	–	–	–	–	–	–	–
COc1ccc(CNCCN2C(=O)c3ccc4c5c(ccc(c35)C2=O)C(=O)N(CCNCc2ccc(OC)c(OC)c2OC)C4=O)c(OC)c1OC	–	–	1.08 µM	2.81 µM	0.589 µM	–	0.146 µM	–	–	–	–	0.248 µM	0.985 µM	0.164 µM	–	–	–	–	0.0762 µM
COc1c(C(=O)CC2c3c(cc4oc(C)cc(=O)c4c3OC)OC(=N)C2c2nc3ccccc3[nH]2)c(O)c(OC)c2occc12 (configuration not stated)	> 100 µM	> 100 µM	> 100 µM	> 100 µM	> 100 µM	> 100 µM	> 100 µM	> 100 µM	> 100 µM	> 100 µM	–	–	–	–	–	–	–	–	–
COc1ccc(/C=N/NC(=O)NCCNCCO)cc1	> 100 µM	> 100 µM	> 100 µM	–	> 100 µM	> 100 µM	> 100 µM	> 100 µM	> 100 µM	> 100 µM	–	–	–	–	–	–	–	–	–
CN(C)c1ccc(/C=C(\C#N)C(=O)c2ccccc2)cc1Br	> 100 µM	> 100 µM	39.6 µM	–	> 100 µM	> 100 µM	> 100 µM	> 100 µM	63.4 µM	> 100 µM	–	–	–	–	–	–	–	–	–
O=C(NC12CC3CC(CC(C3)C1)C2)n1cnc2c(Cl)ncnc21	> 100 µM	> 100 µM	> 100 µM	97.7 µM	70.3 µM	75.8 µM	–	> 100 µM	> 100 µM	> 100 µM	–	–	–	–	–	–	–	–	–
CCc1cc2c(cc1O)CC[C@@H]1[C@@H]2CC[C@]2(C)[C@@H](O)CC[C@@H]12	17.8 µM	20.8 µM	19.8 µM	–	29.3 µM	20.9 µM	27.3 µM	39.4 µM	–	21.8 µM	–	–	–	–	–	–	–	–	–
N#Cc1ccccc1C#C/C=C\C#Cc1ccccn1	41.9 µM	83.1 µM	41.4 µM	38.3 µM	41.6 µM	44.3 µM	> 100 µM	58.6 µM	–	32.3 µM	–	–	–	–	–	–	–	–	–
CCCCCCCCC/C=C1/CC(CO)(COC(=O)C2CCCCC2)OC1=O (configuration not stated)	> 100 µM	> 100 µM	> 100 µM	> 100 µM	> 100 µM	> 100 µM	> 100 µM	> 100 µM	–	> 100 µM	–	–	–	–	–	–	–	–	–
CCOC1=C2N=C(C(CC)c3ccc(F)cc3)N=C2C(=O)c2ccccc21 (configuration not stated)	> 100 µM	84.7 µM	> 100 µM	–	45.3 µM	> 79.8 µM	> 94.4 µM	> 100 µM	> 88.5 µM	55.5 µM	–	–	–	–	–	–	–	–	–
Cc1cc2nc3c(C)c4ccccc4c(C)n3c2cc1C	6.62 µM	> 10 µM	> 10 µM	> 10 µM	> 10 µM	4.84 µM	> 10 µM	> 10 µM	> 10 µM	–	–	–	–	–	–	–	–	–	–
CC(C)C(C=O)C(O)(C(F)(F)F)C(F)(F)F (configuration not stated)	> 100 µM	> 100 µM	–	> 100 µM	> 100 µM	> 100 µM	> 100 µM	> 100 µM	> 100 µM	> 100 µM	–	–	–	–	–	–	–	–	–
CCCC(CCC(=O)O)(CCC(=O)O)[N+](=O)[O-]	> 100 µM	> 100 µM	–	> 100 µM	> 100 µM	> 100 µM	–	> 100 µM	> 100 µM	> 100 µM	–	–	–	–	–	–	–	–	–
C=C1C(=O)OC2C=C(C)CC3C=C(CCC=C(C)CCC12)C(=O)O3 (configuration not stated)	–	140 µM	216 µM	–	131 µM	148 µM	131 µM	208 µM	155 µM	234 µM	–	–	–	–	–	–	–	–	–
C#CCN1C(=O)CN2C(Cl)(Cl)C2(c2ccccc2)c2cc(Cl)ccc21 (configuration not stated)	–	> 100 µM	> 100 µM	–	> 100 µM	> 100 µM	> 100 µM	> 100 µM	> 100 µM	> 100 µM	–	–	–	–	–	–	–	–	–
CC(C)c1cccc(C(C)C)c1NC(=O)/C(Cc1nc2ccc(Cl)cc2[nH]c1=O)=N\NC(=O)C[N+](C)(C)C	> 100 µM	> 100 µM	> 100 µM	–	> 100 µM	> 100 µM	> 100 µM	> 100 µM	> 100 µM	> 100 µM	–	–	–	–	–	–	–	–	–
COC(=O)[C@@]1(Cc2ccc(OC(C)=O)cc2)Cc2cc3ccccc3n2N1	> 100 µM	> 100 µM	> 100 µM	> 100 µM	> 100 µM	–	> 100 µM	> 100 µM	> 100 µM	> 100 µM	–	–	–	–	–	–	–	–	–

— PubChem BioAssay (NCI)
